Where two headings read alike, the source gives them in different places.
Experiments:
[1] = system: adhesion of SCD patient RBCs to heme-activated HUVECs; assay: Endothelialized microfluidic system: SCD patient RBC adhesion to heme-activated HUVECs; format: cell-based, human; conditions: 6 hours, n=7; for adhesion of RBCs to heme-activated endothelium: treatment of RBCs; for adhesion of SCD patient RBCs to endothelium: treatment of heme-activated HUVECs
Protocol: Whole blood samples were collected from 7 SCD subjects with HbSS genotype at University Hospitals Cleveland Medical Center, Cleveland, OH, USA. RBCs were isolated after centrifugation of whole blood collected in EDTA and were resuspended in basal cell culture medium (EBM; Lonza, Morristown, NJ, USA) with 10 mM of HEPES to reach 20% hematocrit. Human umbilical vein endothelial cells (HUVECs; Lonza, Morristown, NJ, USA) were seeded within the microfluidic channels and cultured for at least 72 hours at 15 dyne/cm2 prior to experiments. Tested concentrations of 15(S)-HEPE were selected based on clinical pharmacokinetics for 15(S)-HEPE at 2 g/day and 4 g/day Epeleuton doses. Incubation of RBCs or HUVECs with 15(S)-HEPE was conducted at 37° C. for 6 hours. In one experiment 15(S)-HEPE-treated tor vehicle-treated RBCs flowed on untreated HUVECs and in the second experiment untreated RBCs flowed on 15(S)-HEPE-treated or vehicle-treated […]. In both cases a short-term acute activation was conducted where RBCs were supplemented with 40 μM heme and injected through the microfluidic channels for 15 minutes. Non-adherent RBCs were washed with basal cell culture medium. Phase-contrast images of the remaining RBCs were recorded using inverted microscope (DMi8 Leica Microsystems Inc. Deerfield, IL, USA) and the images were analyzed based on previous published methods. Statistical significance was assessed using paired t-test

UUO mice [2] = format: in vivo
Protocol: UUO Surgery: On day 0 of the study, UUO surgery was performed on mice under pentobarbital sodium anesthesia. The mouse's hair was first shaved and then abdomen cut open to exteriorize the mouse's left ureter. The ureter was ligated 4-0 nylon sutures at two points. The mouse's peritoneum and skin were then closed with sutures, and the mouse transferred to a clean cage until recovered from the anesthesia. Sham operated mice had their left ureter exposed but not ligated. […]
Animals: Seven-week-old female C57BL/6 mice (i.e., animals) were obtained and were housed and fed with a normal diet under controlled conditions. The animals were maintained in a specific-pathogen free (SPF) facility under controlled conditions of temperature (e.g., 23±2° C.), humidity (e.g., 45±10%), lighting (e.g., 12-hour artificial light and dark cycles; light from 8:00 to 20:00) and air exchange. A high pressure was maintained in the experimental room to prevent contamination of the facility. The animals were housed in TPX cages with a maximum of 4 mice per cage. Sterilized Paper-Clean was used for bedding and replaced once a week. Sterilized solid normal diet was provided ad libitum, being placed in a metal lid on the top of the cage. Pure water was also provided ad libitum from a water bottle equipped with a rubber stopper and a sipper tube. Water bottles were replaced once a week, cleaned, and sterilized in an autoclave and reused. Mice were identified by ear punch and each cage was labeled with a specific identification code.
Animal Monitoring and Sacrifice: The viability, clinical signs and behavior for the mice were monitored daily. Individual body weight was measured daily before treatment during the treatment period. […] The animals were sacrificed by exsanguination through direct cardiac puncture under isoflurane anesthesia at Day 14.

[3] = system: α-SMA, TIMP-1, TGF-β and Collagen Type 1 mRNA; assay: UUO study: quantitative RT-PCR of kidney; format: in vivo; conditions: UUO mice kidney, normalized to 36B4, Day 14, mean ± SD
Protocol: Quantitative RT-PCR: Total ribonucleic acid (RNA) was extracted from kidney samples using RNAiso. One μg of RNA was reverse-transcribed using a reaction mixture containing […] (mM) of magnesium chloride (MgCl2), 40 U RNase inhibitor, 0.5 mM dNTP, 6.28 µM random hexamer, 5× first strand buffer, 10 mM dithiothreitol and 200 U MMLV-RT in a final volume of 20 μL. The reaction was carried out for 1 hour at 37° C., followed by 5 minutes at 99° C. Real-time PCR was performed using real-time PCR DICE and TB Green™ Premix Ex Taq™ II. To calculate the relative […] (mRNA) expression level, the expression of each gene (e.g., α-SMA, TIMP-1, TGF-β and Collagen Type 1) was normalized to that of reference gene 36B4 (gene symbol: Rplp0). Information regarding the PCR-primer sets and the plate layout are described in Tables 1 and 2.

UUO mice [4] = assay: UUO study: Sirius red staining, kidney fibrosis area; format: in vivo
Protocol: Histopathological analysis: To visualize collagen deposition, kidney sections were stained using picro-Sirius red solution. For quantification of interstitial fibrosis area, bright field images in the corticomedullary region were captured using a digital camera at 200-fold magnification, and the positive areas in 5 fields/section were measured.

[5] = system: TβR-I, TβR-II, TβR-III, EGFR and caveolin-1 in Mv1Lu cells; assay: Sucrose density gradient analysis of TGF-β receptors in Mv1Lu plasma membranes; format: cell-based, mink
Protocol: The sucrose gradient fractions were then analyzed by Western blot analysis using anti-TβR-I (type I TGF-β receptor), anti-TβR-II (type II TGF-β receptor), anti-TβR-III (type III TGF-β receptor, betaglycan), anti-EGFR (epidermal growth factor receptor), and anti-caveolin-1 antibodies.
The sucrose gradient fractions were then analyzed by Western blot analysis using anti-TβR-I (type I TGF-β receptor-FIG. 18C), anti-TβR-II (type II TGF-β receptor-FIG. 18D), anti-TβR-III (type III TGF-β receptor, betaglycan-FIG. 18E), anti-EGFR (epidermal growth factor receptor-FIG. 18F), and anti-caveolin-1 antibodies (FIG. 18G).

[6] = system: TGF-β-stimulated intracellular signaling (SMAD2/3 phosphorylation) in LX2 cells; assay: TGF-β-stimulated SMAD2/3 phosphorylation in LX2 liver stellate cells; format: cell-based, human; conditions: 0 μM to 100 μM for 24 hours, then 30 min TGF-β stimulation
[7] = system: TGF-β signaling in HepG2 cells; assay: TGF-β-induced EMT protein expression and type II TGF-β receptor in HepG2 cells; format: cell-based, human
Protocol: The effects of 15-HEPE on TGF-β-induced signaling and cellular responses were determined. To test the effect of 15-HEPE on TGF-β-induced signaling, the activities of 15-HEPE to regulate TGF-β-stimulated Smad2 phosphorylation and nuclear translocation, both of which are key signaling events leading to TGF-β-induced cellular responses, were tested. One important biological activity of TGF-β is transcriptional activation of genes responsible for epithelial-mesenchymal transition (EMT), which is a crucial event in wound healing, tissue fibrosis, and cancer progression. The effect of 15-HEPE on TGFβ-induced epithelial mesenchymal transition related proteins (such as fibronectin, PAI-1, and N-cadherin etc.) expression in HepG2 and LXR cells were assessed. HepG2 cells (human hepatoma cell line) were treated in increasing doses of 15-HEPE stage II in DMEM containing 0.1% of FBS for 1 hour and continually stimulated with or without 200 picomolar (pM) of TGF-β for 48 hours. […] HepG2 cells (human hepatoma cell line) were treated in increasing doses of 15-HEPE stage II in DMEM containing 0.1% of FBS for 1 hour and continually stimulated with or without 200 picomolar (pM) of TGF-β for 48 hours. The two panels shown in FIG. 18A are two separate experiments run under the same experimental conditions.

[8] = 5 mg/kg PO QD Day 0-13, Day 14, mean ± SD
[9] = 50 mg/kg PO QD Day 0-13, Day 14, mean ± SD
[10] = 250 mg/kg PO QD Day 0-13, Day 14, mean ± SD
[11] = HepG2 cells, increasing doses, 1 hour, then with or without 200 pM TGF-β for 48 hours

## CC/C=C\C[C@H](O)/C=C/C=C\C/C=C\C/C=C\CCCC(=O)O [15(S)-HEPE, 15(S)-hydroxy-(5Z,8Z,11Z,13E,17Z)-eicosapentaenoic acid]
[1]; 50 µM, p=0.01
  adhesion of RBCs to heme-activated endothelium: significantly decreased
[1]; 100 µM, p=0.001
  adhesion of RBCs to heme-activated endothelium: significantly decreased
[1]; 50 μM, p=0.03
  adhesion of SCD patient RBCs to endothelium: significantly decreased
[1]; 100 μM, p=0.01
  adhesion of SCD patient RBCs to endothelium: significantly decreased

## CCCCCC(O)/C=C/C=C\C/C=C\CCCCCCC(=O)O (stereo not shown) [DS109, 15-hydroxy-eicosa-8Z, 11Z, 13E-trienoic acid]
UUO mice [2]; [8]
  Body Weight: 19.1 ± 0.9 g
  Left Kidney Weight: 533 ± 138 mg
  Left Kidney-to-Body Weight Ratio: 2.79 ± 0.65%
  Right Kidney Weight: 137 ± 7 mg
  Right Kidney-to-Body Weight Ratio: 0.71 ± 0.04%
UUO mice [2]; [9]
  Body Weight: 18.6 ± 0.6 g
  Left Kidney Weight: 523 ± 91 mg
  Left Kidney-to-Body Weight Ratio: 2.83 ± 0.50%
  Right Kidney Weight: 135 ± 6 mg
  Right Kidney-to-Body Weight Ratio: 0.73 ± 0.05%
UUO mice [2]; [10]
  Body Weight: 18.6 ± 0.7 g
  Left Kidney Weight: 425 ± 105 mg
  Left Kidney-to-Body Weight Ratio: 2.26 ± 0.53%
  Right Kidney Weight: 130 ± 13 mg
  Right Kidney-to-Body Weight Ratio: 0.70 ± 0.05%
[3]; 5 mg/kg PO QD Day 0-13
  Alpha-SMA mRNA expression level: 3.87 ± 0.82
  Collagen Type 1 mRNA expression level: 10.76 ± 1.45
  TGF-β mRNA expression level: 4.29 ± 0.93
  TIMP-1 mRNA expression level: 153.60 ± 37.12
[3]; 50 mg/kg PO QD Day 0-13
  Alpha-SMA mRNA expression level: 4.61 ± 3.15
  Collagen Type 1 mRNA expression level: 15.23 ± 11.52
  TGF-β mRNA expression level: 6.01 ± 4.77
  TIMP-1 mRNA expression level: 167.70 ± 122.60
[3]; 250 mg/kg PO QD Day 0-13
  Alpha-SMA mRNA expression level: 4.85 ± 1.22
  Collagen Type 1 mRNA expression level: 13.88 ± 1.91
  TGF-β mRNA expression level: 5.48 ± 0.36
  TIMP-1 mRNA expression level: 180.90 ± 23.12
UUO mice [4]; 5 mg/kg PO QD Day 0-13, Day 14, median
  Sirius red-positive area (%)_Median: 3.22 ± 1.47%
UUO mice [4]; 50 mg/kg PO QD Day 0-13, Day 14, median
  Sirius red-positive area (%)_Median: 3.28 ± 1.41%
UUO mice [4]; 250 mg/kg PO QD Day 0-13, Day 14, median
  Sirius red-positive area (%)_Median: 3.76 ± 0.81%

## CC/C=C\CC(O)/C=C/C=C\C/C=C\C/C=C\CCCC(=O)O (stereo not shown) [15-HEPE, 15-hydroxy-eicosa-5Z,8Z,11Z,13E, 17Z-pentaenoic acid]
[5]; 100 μM, 0, 1, 4, 24 hours
  localization and abundance of TβR-III, EGFR and caveolin-1: did not change
[5]; 100 μM, 37° C., 0, 1, 4, 24 hours
  abundance of TβR-I proteins: did not affect the abundance
[5]; 100 μM, 24 hours treatment
  TβR-II degradation: induce degradation
  translocation of TβR-I to lipid-raft: induced translocation
[5]; 100 μM, from 1 to 4 hours
  TβR-II translocation: induced TβR-II translocation
[6]
  TGF-β-stimulated intracellular signaling (SMAD2/3 phosphorylation): inhibits
[7]; [11]
  TGF-β induced epithelial mesenchymal transition (EMT) (pro-fibrotic) protein production: blocked
  type II TGF-β receptor: induced degradation
[7]; liver cell lines (HepG2, LX2)
  TGF-β signaling: directly inhibit

— patent US20240299328A1, “COMPOSITIONS COMPRISING 15-HEPE AND METHODS OF TREATING AND/OR PREVENTING HEMATOLOGIC DISORDERS AND RELATED DISEASES” (Afimmune Limited, priority 2023, published 2024)
